Measurements from publication PMC11272598, “RG7774 (Vicasinabin), an orally bioavailable cannabinoid receptor 2 (CB2R) agonist, decreases retinal vascular permeability, leukocyte adhesion, and ocular inflammation in animal models” (Frontiers in Pharmacology, 2024).

Experiments:
endogenous CB2R = target: T1, endogenous CB2R (Homo sapiens, UniProt P34972); experiment: pERK assay in Jurkat cells; format: cell-based
T1 construct: endogenous CB2R in human Jurkat cells; endogenous in cells; host or cells: Jurkat cells
Protocol: ERK phosphorylation in response to RG7774 treatment was measured in Jurkat cells as described in ([Saroz et al., 2019]) using the AlphaLISA SureFire Ultra p-Erk1/2 assay (PerkinElmer, Waltham, MA, United States). Cells (200,000 per 96 well plate) were seeded in 40 μL RPMI 1640 assay medium (Fisher Scientific, Schwerte, Germany) containing 10% FCS, 2 mM L-Glu, and 25 mM HEPES) and incubated for 1 h at 37°C in 5% CO2. Cells were treated with increasing concentrations of RG7774 in 40 μL assay medium. Plates were shaken for 30 s (sec) at 450 rpm, incubated for 2 min at 37°C in 5% CO2, and placed on ice. Ice-cold lysis buffer (20 μL 5x) (supplied with the assay kit) was added, plates were shaken (500 rpm) for 10 min at 4°C, and 10 μL of lysate was transferred to a 384-well Optiplate (PerkinElmer, Waltham, MA, United States). The AlphaLISA assay was performed according to the manufacturer’s protocol. Plates were read using Tecan Infinite M1000Pro (excitation 680 nm for 100 ms, integration time 300 ms, and emission 615 nm).

[1] = test system: LPS-induced leukocyte adhesion; experiment: LPS-induced leukocyte adhesion in rats with EIU (IVM); format: in vivo, Lewis rats; conditions: IV 1.0 mg/kg, 6 h after LPS
Protocol: Male BALB/c mice aged 8–10 weeks and weighing 21–26 g (Charles River, QC, Canada) were housed in individually ventilated Allentown cages (Allentown Inc., NJ, United States). Maximum density was n = 5 per cage, with the same litter and sex. Male Lewis rats aged 7–10 weeks and weighing 200–300 g (Charles River, QC, Canada) were housed in static cages (Allentown Inc., NJ, United States), n = 2 per cage with the same litter and sex. Both mice and rats were maintained in a controlled environment (21°C–22°C, humidity range 40%–60%, and a 12 h light/dark cycle), with unrestricted access to food and water. All experiments were conducted in accordance with the standards and procedures of the Canadian Council on Animal Care ([CCAC, 2024]) and were approved by the Dalhousie University Committee on Laboratory Animals. The protocol #13-027 was approved for experimental work in mice. […] All experiments were performed and are reported in accordance with the ARRIVE guidelines ([Kilkenny et al., 2010]; [McGrath et al., 2010]). […]
IVM was used for in vivo investigations of LPS-induced leukocyte recruitment as previously described ([Toguri et al., 2014]). […] The depth of anesthesia throughout the procedure was assessed by the absence of a toe-pinch reflex. […]

human CB1R = human CB1R (Homo sapiens, UniProt P21554); experiment: Forskolin-stimulated cAMP assay in CHO cells; format: cell-based; set-up: bgal (beta-galactosidase fragment of the PathHunter system); host or cells: CHO-K1; conditions: recombinant CHO cells
Protocol: The inhibitory effects of RG7774 on forskolin-stimulated accumulation of cAMP were determined using the cAMP-Nano-TRF detection kit (Roche Diagnostics, Penzberg, Germany), as previously described ([Porter et al., 2019]). CHOK1hCB1_bgal, CHOK1mCB2_bgal, and CHOK1hCB2_bgal cells (DiscoveRx, Fremont, CA, United States) were seeded 17–24 h prior to the experiment at a density of 3 × 10^4 cells per well in a black 96-well plate with a flat, clear bottom (Corning, Wiesbaden, Germany) prior to incubating in 5% CO2 at 37°C in a humidified incubator. The growth medium was exchanged with Krebs Ringer bicarbonate buffer containing 1 mM IBMX and 0.1% fatty acid-free BSA and incubated at 30°C for 1 h. RG7774 or positive control (CP55940) (1 µM) was added to a 0.1 mL final assay volume and the mixture was incubated at 30°C for 30 min. The assay was stopped by adding 50 μL 3x lysis reagent and shaking for 2 h at RT. The time-resolved energy transfer was measured using an LF502 Nanoscan FLT (IOM, Berlin, Germany) equipped with a laser excitation source. cAMP content was determined from a standard curve spanning 10–0.13 nM cAMP. Efficacies were expressed as a percentage relative to the positive control.

Sequence of human CB1R (P21554 whole entry, the tested form may be a part): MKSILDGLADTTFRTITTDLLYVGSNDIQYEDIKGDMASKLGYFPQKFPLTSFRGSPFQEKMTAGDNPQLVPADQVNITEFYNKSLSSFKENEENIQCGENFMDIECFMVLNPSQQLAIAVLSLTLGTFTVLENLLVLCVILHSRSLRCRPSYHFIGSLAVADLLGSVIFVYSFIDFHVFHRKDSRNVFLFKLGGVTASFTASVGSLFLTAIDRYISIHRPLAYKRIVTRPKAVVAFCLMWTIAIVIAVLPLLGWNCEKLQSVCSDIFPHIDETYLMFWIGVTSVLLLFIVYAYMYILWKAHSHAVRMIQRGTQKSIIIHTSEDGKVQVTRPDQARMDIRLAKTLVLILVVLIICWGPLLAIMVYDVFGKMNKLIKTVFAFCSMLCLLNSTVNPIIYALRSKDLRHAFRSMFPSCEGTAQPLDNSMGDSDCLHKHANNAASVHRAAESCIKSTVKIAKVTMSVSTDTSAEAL
T1 sequence (P34972 whole entry): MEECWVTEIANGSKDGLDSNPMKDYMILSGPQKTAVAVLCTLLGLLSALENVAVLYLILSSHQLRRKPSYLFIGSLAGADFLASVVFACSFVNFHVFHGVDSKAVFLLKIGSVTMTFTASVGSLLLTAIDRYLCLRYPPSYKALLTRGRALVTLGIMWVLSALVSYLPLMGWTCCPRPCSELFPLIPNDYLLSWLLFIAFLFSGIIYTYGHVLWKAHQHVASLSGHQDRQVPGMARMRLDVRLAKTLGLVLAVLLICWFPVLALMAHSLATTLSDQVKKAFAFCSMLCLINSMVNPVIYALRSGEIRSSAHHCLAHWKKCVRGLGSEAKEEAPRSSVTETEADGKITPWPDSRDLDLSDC

For `Cn1nnnc1Cn1nnc2c(N3CC[C@H](O)C3)nc(C(C)(C)C)nc21` [RG7774, (S)-1-(5-tert-butyl-3-[(1-methyl-1H-tetrazol-5-yl)methyl]-3H-[1,2,3]triazolo[4,5-d]pyrimidin-7-yl)pyrrolidin-3-ol], the EC50 (endogenous CB2R) was 38.5 ± 15 nM, the “decrease in leukocyte adhesion compared to vehicle control” value [1] was 60% and the “effect on human CB1R in cAMP assay” value (human CB1R) was “no effect”.
